The values below come from ChEMBL document CHEMBL5727859, “Indole derivatives and use thereof” (2020).

This test is described as follows: FLIPR Assays: In vitro assays were performed in a recombinant cell line expressing cDNA encoding the alpha subunit (Nav1.7, SCN9a, PN1, NE) of human Nav1.7 (Accession No. NM_002977). The cell line was provided by investigators at Yale University (Cummins et al, J. Neurosci. 18(23): 9607-9619 (1998)). For dominant selection of the Nav1.7-expressing clones, the expression plasmid co-expressed the neomycin resistance gene. The cell line was constructed in the human embryonic kidney cell line, HEK293, under the influence of the […], and stable clones were selected using limiting dilution cloning and antibiotic selection using the neomycin analogue, G418. Recombinant beta and gamma subunits were not introduced into this cell line. Additional cell lines expressing recombinant Nav1.7 cloned from other species can also be used, alone or in combination with various beta subunits, gamma subunits or chaperones.

On to `NC(=O)[C@H](O)[C@@H](O)c1cccc(-c2ccc3c(ccn3CC3CC3)c2)n1`, for which the half-inhibitory concentration (IC50) was 1.02 mM.
